Experimental data published in PMC10714400, “Antimicrobial Peptide–Peptoid Hybrids with and without Membrane Disruption” (ACS Infectious Diseases, 2023).
In brackets after ≈: the same amount, converted by molar mass. Like-named read-outs stand apart in the source and are kept apart here. Where a SMILES comes first, the peptide text is derived from it. [ ]: non-standard residue; d: D form. Nleu = CC(C)CNCC(=O)O; Nlys = NCCCCNCC(=O)O

Columns and labels:
PA14 2P4 (pmrB) = test system: PA14 2P4 (pmrB)
How it was run: (§1)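 MIC taken visually after MTT staining (20–30 min, RT) as the lowest compound concentration preventing growth, i.e. yellow wells. Inoculum ~5 × 10^5 CFU/well in MH broth, 37 °C static for ca. 18 h; polymyxin B control started at 16 μg/mL.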

PA14 4.18 (pmrB) = test system: PA14 4.18 (pmrB)
How it was run: as §1

S. aureus COL (MRSA) = test system: S. aureus COL (MRSA)
How it was run: as §1

P. aeruginosa PAO1 = test system: P. aeruginosa PAO1
How it was run: as §1

[1] = test system: ZEM9A (clinical MDR P. aeruginosa isolate)
How it was run: as §1

K. pneumoniae OXA-48 = test system: K. pneumoniae OXA-48
How it was run: as §1

A. baumannii ATCC19606 = test system: A. baumannii ATCC19606
How it was run: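 MTT added (20–30 min, room temperature); MIC read by eye as lowest concentration inhibiting visible growth (yellow). Polymyxin B positive control from 16 μg/mL.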

[2] = test system: ZEM-1A (clinical MDR P. aeruginosa isolate)
How it was run: as §1

HEK293 cells = test: Cell viability assay by Alamar blue; conditions: read-out: Toxicity on HEK293 cells; CSV
Method: The data are represented as the mean value ± SD, n = 3. […] (c) Vesicle leakage assay for a selection of compounds. Lipid vesicles made of EYPG or EYPC were suspended in a buffer (10 mM TRIS, 107 mM NaCl, pH 7.4). After 45 s, the indicated compound was added to reach the desired concentration. After 240 s, 30 μL of 1.2% TritonX-100 was added for full fluorescein release. […] See Supporting Information for the full curves, all of the data, and procedures.
HEK293 cells were cultured and maintained in DMEM high glucose (Dulbecco’s modified Eagle medium, Sigma Aldrich) medium supplemented with 10% FBS (Sigma Aldrich) and 1% penicillin/streptomycin. A549 cells were cultured and maintained in RPMI-1640 medium (Sigma Aldrich), supplemented with 10% FBS (Sigma Aldrich) and 1% penicillin/streptomycin. The cells were handled and subcultured according to the manufacturer instructions. Cells were incubated in a humidified incubator at 37 °C in the presence of 5% CO2.
Assays on HEK293, A549 cells were performed as described earlier.[74] […]

[3] = test system: human red blood cells (hRBC); test: Minimum hemolytic concentration (MHC); assay type: cell-based
Text: We also measured minimal hemolysis concentrations (MHC) on human red blood cells by serial 2-fold dilution as an indication of toxicity against eukaryotic cells (Table 1).

P. aeruginosa PA14 = test system: P. aeruginosa PA14
How it was run: as §1

S. epidermis = conditions: pH 7.4
How it was run: as §1

S. maltophilia = conditions: pH 7.4
How it was run: as §1

S. aureus Newman = conditions: Newman
How it was run: as §1

B. cenocepacia = conditions: pH 7.4
How it was run: as §1

`CC(C)C[C@H](NC(=O)[C@H](CCCCN)NC(=O)CNCCCCN)C(=O)N[C@@H](CC(C)C)C(=O)N[C@@H](CCCCN)C(=O)N[C@@H](CC(C)C)C(=O)N[C@@H](CC(C)C)C(=O)N[C@@H](CCCCN)C(=O)N[C@@H](CC(C)C)C(=O)N[C@@H](CC(C)C)C(=O)N(CC(N)=O)CC(C)C` [EB1] (H-[Nlys]KLLKLLKLL[Nleu]-NH2; N-terminus assumed) was tested, and the “MIC P. aeruginosa PA14 2P4, […] MH at pH 8.5” value (PA14 2P4 (pmrB); CSV, […] MH at pH 8.5) was 2 ug/mL, the “MIC P. aeruginosa PA14 2P4, full MH at pH 7.4” value (PA14 2P4 (pmrB); CSV, full MH at pH 7.4) was 32 ug/mL and the “MIC PA14 2P4 (pmrB)” value (PA14 2P4 (pmrB); MH pH 7.4, 16–20 h at 37 °C) was 32 µg/mL (≈ 24.2 µM). For the same molecule, the “MIC P. aeruginosa PA14 2P4” value (PA14 2P4 (pmrB); Table S3, […] MH at pH 8.5) was 2 µg/mL (≈ 1.51 µM), the “MIC P. aeruginosa PA14 4.18, […] MH at pH 8.5” value (PA14 4.18 (pmrB); CSV, […] MH at pH 8.5) was 2 ug/mL and the “MIC P. aeruginosa PA14 4.18, full MH at pH 7.4” value (PA14 4.18 (pmrB); CSV, full MH at pH 7.4) was 32 ug/mL. The “MIC PA14 4.18 (pmrB)” value (PA14 4.18 (pmrB); MH pH 7.4, 16–20 h at 37 °C) was 32 µg/mL (≈ 24.2 µM), the “MIC P. aeruginosa PA14 4.18” value (PA14 4.18 (pmrB); Table S3, […] MH at pH 8.5) was 2 µg/mL (≈ 1.51 µM) and the “MIC S. aureus COL (MRSA) Full” value (S. aureus COL (MRSA); COL, pH 7.4) was 8 µg/mL (≈ 6.05 µM). The “MIC S. aureus COL (MRSA) […] 7.4” value (S. aureus COL (MRSA); Table S2, […] MH, pH 7.4) was 2 µg/mL (≈ 1.51 µM), the “MIC S. aureus COL (MRSA) […] 8.5” value (S. aureus COL (MRSA); Table S2, […] MH, pH 8.5) was 2 µg/mL (≈ 1.51 µM) and the “MIC S. aureus COL (MRSA) Full MH 7.4” value (S. aureus COL (MRSA); Table S2, full MH, pH 7.4) was 8/32. The “MIC S. aureus COL (MRSA) Full MH 8.5” value (S. aureus COL (MRSA); Table S2, full MH, pH 8.5) was 32 µg/mL (≈ 24.2 µM), the “MIC P. aeruginosa PAO1, full MH at pH 7.4” value (P. aeruginosa PAO1; PAO1, 4 h, pH 7.4) was 4 ug/mL and the “MIC P. aeruginosa PAO1 […] 7.4” value (P. aeruginosa PAO1; Table S2, […] MH, pH 7.4) was 2 µg/mL (≈ 1.51 µM). For the same molecule, the “MIC P. aeruginosa PAO1 […] 8.5” value (P. aeruginosa PAO1; Table S2, […] MH, pH 8.5) was 2 µg/mL (≈ 1.51 µM), the “MIC P. aeruginosa PAO1 Full MH 7.4” value (P. aeruginosa PAO1; Table S2, full MH, pH 7.4) was 4 µg/mL (≈ 3.03 µM) and the “MIC P. aeruginosa PAO1 Full MH 8.5” value (P. aeruginosa PAO1; Table S2, full MH, pH 8.5) was 16 µg/mL (≈ 12.1 µM). For the same molecule, the “MIC P. aeruginosa ZEM9A, full MH at pH 7.4” value ([1]; CSV, full MH at pH 7.4) was 16 ug/mL, the “MIC ZEM9A” value ([1]; MH pH 7.4, 16–20 h at 37 °C) was 16 µg/mL (≈ 12.1 µM) and the “MIC K. pneumoniae OXA-48, full MH at pH 7.4” value (K. pneumoniae OXA-48; CSV, full MH at pH 7.4) was 12 ug/mL. The “MIC K. pneumoniae OXA-48” value (K. pneumoniae OXA-48; MH pH 7.4, 16–20 h at 37 °C) was 8 to 16 µg/mL, the “MIC A. baumannii ATCC19606, full MH at pH 7.4” value (A. baumannii ATCC19606; ATCC19606, 4 h, pH 7.4) was 2 ug/mL and the “MIC A. baumannii ATCC19606 […] 7.4” value (A. baumannii ATCC19606; Table S2, […] MH, pH 7.4) was 2 µg/mL (≈ 1.51 µM). The “MIC A. baumannii ATCC19606 Full MH 7.4” value (A. baumannii ATCC19606; Table S2, full MH, pH 7.4) was 2 µg/mL (≈ 1.51 µM), the “MIC A. baumannii ATCC19606 Full MH 8.5” value (A. baumannii ATCC19606; Table S2, full MH, pH 8.5) was greater than 32 µg/mL and the “MIC P. aeruginosa ZEM-1A, full MH at pH 7.4” value ([2]; CSV, full MH at pH 7.4) was 3 ug/mL. For the same molecule, the “MIC ZEM-1A” value ([2]; MH pH 7.4, 16–20 h at 37 °C) was 2 to 4 µg/mL, the IC50 (HEK293 cells) was 110 ± 6 µM and the MHC [3] was 1000 µg/mL. The “MHC (hemolysis)” value ([3]; red cells of human) was 250 to 1000 µg/mL, the “MIC P. aeruginosa PA14, full MH at pH 7.4” value (P. aeruginosa PA14; PA14, 4 h, pH 7.4) was 4 ug/mL and the “MIC P. aeruginosa PA14” value (P. aeruginosa PA14; PA14, pH 7.4) was 4 µg/mL (≈ 3.03 µM). For the same molecule, the “MIC P. aeruginosa PA14” value (P. aeruginosa PA14; PA14, pH 8.5) was 2 µg/mL (≈ 1.51 µM), the “MIC S. epidermis, full MH at pH 7.4” value (S. epidermis; 4 h) was 6 ug/mL and the “MIC S. epidermis” value (S. epidermis) was 4 to 8 µg/mL. The “MIC S. maltophilia, full MH at pH 7.4” value (S. maltophilia; 4 h) was 3 ug/mL, the “MIC S. maltophilia” value (S. maltophilia) was 2 to 4 µg/mL and the “MIC S. aureus Newman, full MH at pH 7.4” value (S. aureus Newman; 4 h, pH 7.4) was 32 ug/mL. The “MIC S. aureus Newman” value (S. aureus Newman; 4 h, pH 8.5) was 2 µg/mL (≈ 1.51 µM), the “MIC S. aureus Newman” value (S. aureus Newman; pH 7.4) was 32 µg/mL (≈ 24.2 µM) and the “MIC B. cenocepacia, full MH at pH 7.4” value (B. cenocepacia; 4 h) was greater than 32 ug/mL. The “MIC B. cenocepacia” value (B. cenocepacia) was greater than 32 µg/mL.
